Tested on: KM mice
Assay: Test for drug-induced disappearance of righting reflex in mice
Format: in vivo
Conditions: single rapid bolus via tail vein
From the text: In anesthetic drug experiments, latency generally refers to the time from the start of administration to the loss of consciousness of the subject. The shorter latency is preferred, indicating a rapid onset of action after administration. The duration of anesthesia generally refers to the duration of time from the loss of consciousness to the restoration of consciousness of the subject. The duration of the drug will vary from animal model to animal species. Too long anesthesia may produce adverse cardiovascular and respiratory responses, such as adverse neurological effects to the subject, including sleepiness and dizziness; meanwhile, too short duration of anesthesia may affect the anesthesia effect, causing problems such as increase of anesthesia dosage during the operation.
KM mice (female, 18-25 g) were randomly grouped and subjected to a single administration by rapid bolus via the tail vein. The latency and duration of disappearance of righting reflex in the mice were recorded.

Structure (SMILES)	Duration (30 mg/kg) [min]	Latency (30 mg/kg) [min]	Duration (15 mg/kg) [min]	Latency (15 mg/kg) [min]	Duration (60 mg/kg) [min]	Latency (60 mg/kg) [min]
COC(=O)CC[C@@H]1N=C(c2ccccc2F)c2cc(Br)ccc2-n2c(SCCN3CCCC3)nnc21 [Compound 120, methyl (S)-3-(8-bromo-6-(2-fluorophenyl)-1-(2-((pyrrolidin-1-yl)ethyl)thio)-4H-benzo[f][1,2,4]triazolo[4,3-a][1,4]diazepin-4-yl)propionate]	19.47	0.29	–	–	–	–
CCSc1nnc2n1-c1ccc(Br)cc1C(c1ccccn1)=N[C@H]2CCC(=O)OC [Compound 115, methyl (S)-3-(8-bromo-6-(pyridin-2-yl)-1-ethylthio-4H-benzo[f][1,2,4]triazolo[4,3-a][1,4]diazepin-4-yl)propionate]	5.02	0.13	1.26	0.18	–	–
CCCSc1nnc2n1-c1ccc(Br)cc1C(c1ccccc1F)=N[C@H]2CCC(=O)OC [Compound 15, methyl (S)-3-(8-bromo-6-(2-fluorophenyl)-1-(propylthio)-4H-benzo[f][1,2,4]triazolo[4,3-a][1,4]diazepin-4-yl)propionate]	8.47	1.03	–	–	–	–
COC(=O)CC[C@@H]1N=C(c2ccccc2F)c2cc(Cl)ccc2-n2c(SCCN3CCN(C)CC3)nnc21 [Compound 60, methyl (S)-3-(8-chloro-6-(2-fluorophenyl)-1-((2-(4-methylpiperazin-1-yl)ethyl)thio)-4H-benzo[f][1,2,4]triazolo[4,3-a][1,4]diazepin-4-yl)propionate]	12.27	0.49	–	–	–	–
COC(=O)CC[C@@H]1N=C(c2ccccc2Cl)c2cc([N+](=O)[O-])ccc2-n2c(SCCCN3CCN(CCO)CC3)nnc21 [Compound 98, methyl (S)-3-(8-nitro-6-(2-chlorophenyl)-1-((3-(4-(2-hydroxyethyl)piperazin-1-yl)propyl)thio)-4H-benzo[f][1,2,4]triazolo[4,3-a][1,4]diazepin-4-yl)propionate]	14.71	1.31	–	–	–	–
COC(=O)CC[C@@H]1N=C(c2ccccc2F)c2cc([N+](=O)[O-])ccc2-n2c(SCN3CCN(c4ccccc4)CC3)nnc21 [Compound 74, methyl (S)-3-(8-nitro-6-(2-fluorophenyl)-1-(((4-phenylpiperazin-1-yl)methyl)thio)-4H-benzo[f][1,2,4]triazolo[4,3-a][1,4]diazepin-4-yl)propionate]	6.16	0.47	–	–	–	–
CCCSc1nnc2n1-c1ccc([N+](=O)[O-])cc1C(c1ccccc1F)=N[C@H]2CCC(=O)OC [Compound 16, methyl (S)-3-(8-nitro-6-(2-fluorophenyl)-1-(propylthio)-4H-benzo[f][1,2,4]triazolo[4,3-a][1,4]diazepin-4-yl)propionate]	6.25	0.79	–	–	6.6	0.28
COC(=O)CC[C@@H]1N=C(c2ccccc2)c2cc([N+](=O)[O-])ccc2-n2c(SCCCN(C)C)nnc21 [Compound 110, methyl (S)-3-(8-nitro-1-((3-(dimethylamino)propyl)thio)-6-phenyl-4H-benzo[f][1,2,4]triazolo[4,3-a][1,4]diazepin-4-yl)propionate]	10.16	0.22	–	–	15.27	0.21
COC(=O)CC[C@@H]1N=C(c2ccccc2F)c2cc(Cl)ccc2-n2c(SCC3CC3)nnc21 [Compound 45, methyl (S)-3-(8-chloro-1-((cyclopropylmethyl)thio)-6-(2-fluorophenyl)-4H-benzo[f][1,2,4]triazolo[4,3-a][1,4]diazepin-4-yl)propionate]	11.37	0.65	–	–	–	–
CCN(CC)CCSc1nnc2n1-c1ccc(Cl)cc1C(c1ccccc1F)=N[C@H]2CCC(=O)OC [Compound 54, methyl (S)-3-(8-chloro-1-((2-(diethylamino)ethyl)thio)-6-(2-fluorophenyl)-4H-benzo[f][1,2,4]triazolo[4,3-a][1,4]diazepin-4-yl)propionate]	6.83	0.24	–	–	–	–
COC(=O)CC[C@@H]1N=C(c2ccccc2Cl)c2cc(Br)ccc2-n2c(SCN3CCOCC3)nnc21 [Compound 100, methyl (S)-3-(8-bromo-6-(2-chlorophenyl)-1-((morpholinomethyl)thio)-4H-benzo[f][1,2,4]triazolo[4,3-a][1,4]diazepin-4-yl)propionate]	9.75	0.64	–	–	–	–
COC(=O)CC[C@@H]1N=C(c2ccccn2)c2cc(Br)ccc2-n2c(S)nnc21 [Compound 3, methyl (S)-3-(8-bromo-6-(pyridin-2-yl)-1-mercapto-4H-benzo[f][1,2,4]triazolo[4,3-a][1,4]diazepin-4-yl)propionate]	7.37	0.48	–	–	–	–
CCN(CC)CCSc1nnc2n1-c1ccc([N+](=O)[O-])cc1C(c1ccccc1Cl)=N[C@H]2CCC(=O)OC [Compound 86, methyl (S)-3-(8-nitro-6-(2-chlorophenyl)-1-((2-(diethylamino)ethyl)thio)-4H-benzo[f][1,2,4]triazolo[4,3-a][1,4]diazepin-4-yl)propionate]	18.62	0.62	–	–	–	–
COC(=O)CC[C@@H]1N=C(c2ccccc2Cl)c2cc(Cl)ccc2-n2c(SCCn3ccnc3)nnc21 [Compound 138, methyl (S)-3-(8-chloro-6-(2-chlorophenyl)-1-(2-((1H-imidazol-1-yl)ethyl)thio)-4H-benzo[f][1,2,4]triazolo[4,3-a][1,4]diazepin-4-yl)propionate]	6.94	0.27	–	–	–	–
COC(=O)CC[C@@H]1N=C(c2ccccc2)c2cc(Br)ccc2-n2c(SCCN3CCOCC3)nnc21 [Compound 106, methyl (S)-3-(8-bromo-1-((2-morpholinoethyl)thio)-6-phenyl-4H-benzo[f][1,2,4]triazolo[4,3-a][1,4]diazepin-4-yl)propionate]	12.37	0.33	–	–	3.26	0.09
COC(=O)CC[C@@H]1N=C(c2ccccn2)c2cc(Br)ccc2-n2c1n[nH]c2=S [Tautomer of compound 3, methyl (S)-3-(8-bromo-6-(pyridin-2-yl)-1-thio-2,4-dihydro-1H-benzo[f][1,2,4]triazolo[4,3-a][1,4]diazepin-4-yl)propionate]	8.27	0.65	–	–	–	–
C#CCSc1nnc2n1-c1ccc(Cl)cc1C(c1ccccc1F)=N[C@H]2CCC(=O)OC [Compound 48, methyl (S)-3-(8-chloro-6-(2-fluorophenyl)-1-(prop-2-yn-1-ylthio)-4H-benzo[f][1,2,4]triazolo[4,3-a][1,4]diazepin-4-yl)propionate]	–	–	–	–	8.54	1.25
COC(=O)CC[C@@H]1N=C(c2ccccc2F)c2cc(Br)ccc2-n2c(SC)nnc21 [Compound 9, methyl (S)-3-(8-bromo-6-(2-fluorophenyl)-1-(methylthio)-4H-benzo[f][1,2,4]triazolo[4,3-a][1,4]diazepin-4-yl)propionate]	12.12	0.84	–	–	–	–
COC(=O)CC[C@@H]1N=C(c2ccccc2F)c2cc(Br)ccc2-n2c(SC(=O)N3CCN(C)CC3)nnc21 [Compound 131]	6.84	0.56	–	–	–	–
COC(=O)CC[C@@H]1N=C(c2ccccc2F)c2cc(Cl)ccc2-n2c(SC)nnc21 [Compound 8, methyl (S)-3-(8-chloro-6-(2-fluorophenyl)-1-(methylthio)-4H-benzo[f][1,2,4]triazolo[4,3-a][1,4]diazepin-4-yl)propionate]	8.35	0.36	–	–	–	–
CCOC(=O)CC[C@@H]1N=C(c2ccccc2Cl)c2cc(Br)ccc2-n2c(SC)nnc21 [Compound 43, ethyl (S)-3-(8-bromo-6-(2-chlorophenyl)-1-(methylthio)-4H-benzo[f][1,2,4]triazolo[4,3-a][1,4]diazepin-4-yl)propionate]	12.38	0.38	–	–	7.25	0.84
COC(=O)CC[C@@H]1N=C(c2ccccc2F)c2cc([N+](=O)[O-])ccc2-n2c(SCC3CC3)nnc21 [Compound 47, methyl (S)-3-(8-nitro-1-((cyclopropylmethyl)thio)-6-(2-fluorophenyl)-4H-benzo[f][1,2,4]triazolo[4,3-a][1,4]diazepin-4-yl)propionate]	–	–	–	–	10.52	0.82
O=C(CC[C@@H]1N=C(c2ccccc2Cl)c2cc(Cl)ccc2-n2c1n[nH]c2=S)OCCN1CCOCC1 [Compound 137, (S)-3-(8-chloro-6-(2-chlorophenyl)-1-thio-2,4-dihydro-1H-benzo[f][1,2,4]triazolo[4,3-a][1,4]diazepin-4-yl)propionic acid-2-morpholinoethyl ester]	21.45	0.67	–	–	–	–
COC(=O)CC[C@@H]1N=C(c2ccccc2Cl)c2cc(Cl)ccc2-n2c(SC3CCN(C)CC3)nnc21 [Compound 93, methyl (S)-3-(8-chloro-6-(2-chlorophenyl)-1-((1-methylpiperidin-4-yl)thio)-4H-benzo[f][1,2,4]triazolo[4,3-a][1,4]diazepin-4-yl)propionate]	12.41	0.58	–	–	–	–
COC(=O)CC[C@@H]1N=C(c2ccccc2)c2ccccc2-n2c(S)nnc21 [Compound 5, methyl (S)-3-(6-phenyl-1-mercapto-4H-benzo[f][1,2,4]triazolo[4,3-a][1,4]diazepin-4-yl)propionate]	13.27	1.11	–	–	–	–
